Data from PMC12090182, “Repurposing of the RIPK1-Selective Benzo[1,4]oxazepin-4-one Scaffold for the Development of a Type III LIMK1/2 Inhibitor” (ACS Chemical Biology, 2025).

Tested on: MRC-9 cells
Experiment: Multiplex high-content viability assessment
Type: cell-based
Conditions: human fibroblast
Summary of the method: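 HEK293T and U2OS cells (DMEM) and MRC-9 fibroblasts (EMEM) exposed to compounds at 1 and 10 μM. Live-cell confocal imaging of cell shape and fluorescence before and at 12, 24 and 48 h. Normalized to 0.1% DMSO; biological duplicates with SEM.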

[1] = 1 µM, 0 h after treatment, biological replicate 1
[2] = 1 µM, 0 h after treatment, biological replicate 2
[3] = 1 µM, 12 h after treatment, biological replicate 1
[4] = 1 µM, 12 h after treatment, biological replicate 2
[5] = 1 µM, 24 h after treatment, biological replicate 1
[6] = 1 µM, 24 h after treatment, biological replicate 2
[7] = 1 µM, 48 h after treatment, biological replicate 1
[8] = 1 µM, 48 h after treatment, biological replicate 2
[9] = 10 µM, 0 h after treatment, biological replicate 1
[10] = 10 µM, 0 h after treatment, biological replicate 2
[11] = 10 µM, 12 h after treatment, biological replicate 1
[12] = 10 µM, 12 h after treatment, biological replicate 2
[13] = 10 µM, 24 h after treatment, biological replicate 1
[14] = 10 µM, 24 h after treatment, biological replicate 2
[15] = 10 µM, 48 h after treatment, biological replicate 1
[16] = 10 µM, 48 h after treatment, biological replicate 2

Structure (SMILES): CC(C)C(=O)Nc1ncc(C(=O)NCCN(Cc2ccccc2)C(=O)c2ccc(S(=O)(=O)Nc3ccccc3)cc2)s1 [TH470]
- Cell count normalized to cells treated with DMSO control [1]: 0.8608
- Cell count per well [1]: 129
- Population Fragmented Nuclei (%) [1]: 29.31%
- Population Healthy Nuclei (%) [1]: 61.21%
- Population Pyknosed Nuclei (%) [1]: 9.48%
- Population apoptotic cell (%) [1]: 36.36%
- Population cell that influence microtubule strucutre (%) [1]: 19.72%
- Population with increased mitochondrial mass (%) [1]: 8.45%
- Population with membrane disruption (%) [1]: 1.41%
- Cell count normalized to cells treated with DMSO control [2]: 0.9307
- Cell count per well [2]: 166
- Population Fragmented Nuclei (%) [2]: 25.00%
- Population Healthy Nuclei (%) [2]: 44.23%
- Population Pyknosed Nuclei (%) [2]: 30.77%
- Population apoptotic cell (%) [2]: 35.42%
- Population cell that influence microtubule strucutre (%) [2]: 44.93%
- Population with increased mitochondrial mass (%) [2]: 11.59%
- Population with membrane disruption (%) [2]: 10.14%
- Cell count normalized to cells treated with DMSO control [3]: 0.8102
- Cell count per well [3]: 122
- Population Fragmented Nuclei (%) [3]: 23.93%
- Population Healthy Nuclei (%) [3]: 62.39%
- Population Pyknosed Nuclei (%) [3]: 13.68%
- Population apoptotic cell (%) [3]: 43.75%
- Population cell that influence microtubule strucutre (%) [3]: 27.40%
- Population with increased mitochondrial mass (%) [3]: 4.11%
- Population with membrane disruption (%) [3]: 2.74%
- Cell count normalized to cells treated with DMSO control [4]: 0.8825
- Cell count per well [4]: 147
- Population Fragmented Nuclei (%) [4]: 34.51%
- Population Healthy Nuclei (%) [4]: 42.25%
- Population Pyknosed Nuclei (%) [4]: 23.24%
- Population apoptotic cell (%) [4]: 36.36%
- Population cell that influence microtubule strucutre (%) [4]: 73.33%
- Population with increased mitochondrial mass (%) [4]: 13.33%
- Population with membrane disruption (%) [4]: 15.00%
- Cell count normalized to cells treated with DMSO control [5]: 0.8356
- Cell count per well [5]: 126
- Population Fragmented Nuclei (%) [5]: 27.27%
- Population Healthy Nuclei (%) [5]: 57.02%
- Population Pyknosed Nuclei (%) [5]: 15.70%
- Population apoptotic cell (%) [5]: 63.16%
- Population cell that influence microtubule strucutre (%) [5]: 34.78%
- Population with increased mitochondrial mass (%) [5]: 4.35%
- Population with membrane disruption (%) [5]: 1.45%
- Cell count normalized to cells treated with DMSO control [6]: 0.9099
- Cell count per well [6]: 150
- Population Fragmented Nuclei (%) [6]: 42.18%
- Population Healthy Nuclei (%) [6]: 40.82%
- Population Pyknosed Nuclei (%) [6]: 17.01%
- Population apoptotic cell (%) [6]: 56.00%
- Population cell that influence microtubule strucutre (%) [6]: 61.67%
- Population with increased mitochondrial mass (%) [6]: 10.00%
- Population with membrane disruption (%) [6]: 18.33%
- Cell count normalized to cells treated with DMSO control [7]: 0.8239
- Cell count per well [7]: 125
- Population Fragmented Nuclei (%) [7]: 33.87%
- Population Healthy Nuclei (%) [7]: 54.03%
- Population Pyknosed Nuclei (%) [7]: 12.10%
- Population apoptotic cell (%) [7]: 60.00%
- Population cell that influence microtubule strucutre (%) [7]: 41.79%
- Population with increased mitochondrial mass (%) [7]: 4.48%
- Population with membrane disruption (%) [7]: 1.49%
- Cell count normalized to cells treated with DMSO control [8]: 0.9026
- Cell count per well [8]: 147
- Population Fragmented Nuclei (%) [8]: 48.98%
- Population Healthy Nuclei (%) [8]: 42.18%
- Population Pyknosed Nuclei (%) [8]: 8.84%
- Population apoptotic cell (%) [8]: 69.23%
- Population cell that influence microtubule strucutre (%) [8]: 61.29%
- Population with increased mitochondrial mass (%) [8]: 16.13%
- Population with membrane disruption (%) [8]: 9.68%
- Cell count normalized to cells treated with DMSO control [9]: 1.121
- Cell count per well [9]: 168
- Population Fragmented Nuclei (%) [9]: 21.21%
- Population Healthy Nuclei (%) [9]: 57.58%
- Population Pyknosed Nuclei (%) [9]: 21.21%
- Population apoptotic cell (%) [9]: 25.71%
- Population cell that influence microtubule strucutre (%) [9]: 17.89%
- Population with increased mitochondrial mass (%) [9]: 6.32%
- Population with membrane disruption (%) [9]: 1.05%
- Cell count normalized to cells treated with DMSO control [10]: 0.8074
- Cell count per well [10]: 144
- Population Fragmented Nuclei (%) [10]: 27.54%
- Population Healthy Nuclei (%) [10]: 50.00%
- Population Pyknosed Nuclei (%) [10]: 22.46%
- Population apoptotic cell (%) [10]: 38.71%
- Population cell that influence microtubule strucutre (%) [10]: 49.28%
- Population with increased mitochondrial mass (%) [10]: 15.94%
- Population with membrane disruption (%) [10]: 2.90%
- Cell count normalized to cells treated with DMSO control [11]: 1.202
- Cell count per well [11]: 181
- Population Fragmented Nuclei (%) [11]: 19.88%
- Population Healthy Nuclei (%) [11]: 54.97%
- Population Pyknosed Nuclei (%) [11]: 25.15%
- Population apoptotic cell (%) [11]: 39.53%
- Population cell that influence microtubule strucutre (%) [11]: 77.66%
- Population with increased mitochondrial mass (%) [11]: 9.57%
- Population with membrane disruption (%) [11]: 3.19%
- Cell count normalized to cells treated with DMSO control [12]: 0.9125
- Cell count per well [12]: 152
- Population Fragmented Nuclei (%) [12]: 31.25%
- Population Healthy Nuclei (%) [12]: 34.03%
- Population Pyknosed Nuclei (%) [12]: 34.72%
- Population apoptotic cell (%) [12]: 54.00%
- Population cell that influence microtubule strucutre (%) [12]: 91.84%
- Population with increased mitochondrial mass (%) [12]: 14.29%
- Population with membrane disruption (%) [12]: 18.37%
- Cell count normalized to cells treated with DMSO control [13]: 1.167
- Cell count per well [13]: 176
- Population Fragmented Nuclei (%) [13]: 24.85%
- Population Healthy Nuclei (%) [13]: 52.66%
- Population Pyknosed Nuclei (%) [13]: 22.49%
- Population apoptotic cell (%) [13]: 57.89%
- Population cell that influence microtubule strucutre (%) [13]: 78.65%
- Population with increased mitochondrial mass (%) [13]: 19.10%
- Population with membrane disruption (%) [13]: 1.12%
- Cell count normalized to cells treated with DMSO control [14]: 0.825
- Cell count per well [14]: 136
- Population Fragmented Nuclei (%) [14]: 34.62%
- Population Healthy Nuclei (%) [14]: 32.31%
- Population Pyknosed Nuclei (%) [14]: 33.08%
- Population apoptotic cell (%) [14]: 44.19%
- Population cell that influence microtubule strucutre (%) [14]: 88.10%
- Population with increased mitochondrial mass (%) [14]: 19.05%
- Population with membrane disruption (%) [14]: 16.67%
- Cell count normalized to cells treated with DMSO control [15]: 1.081
- Cell count per well [15]: 164
- Population Fragmented Nuclei (%) [15]: 23.18%
- Population Healthy Nuclei (%) [15]: 54.97%
- Population Pyknosed Nuclei (%) [15]: 21.85%
- Population apoptotic cell (%) [15]: 48.48%
- Population cell that influence microtubule strucutre (%) [15]: 89.16%
- Population with increased mitochondrial mass (%) [15]: 22.89%
- Population with membrane disruption (%) [15]: 0.00%
- Cell count normalized to cells treated with DMSO control [16]: 0.7798
- Cell count per well [16]: 127
- Population Fragmented Nuclei (%) [16]: 44.35%
- Population Healthy Nuclei (%) [16]: 37.90%
- Population Pyknosed Nuclei (%) [16]: 17.74%
- Population apoptotic cell (%) [16]: 63.64%
- Population cell that influence microtubule strucutre (%) [16]: 89.36%
- Population with increased mitochondrial mass (%) [16]: 17.02%
- Population with membrane disruption (%) [16]: 17.02%
